Where two headings read alike, the source gives them in different places.
How the values were obtained:
SsCOMT [1] = assay: In vitro OMT enzyme assay, recombinant SsCOMT; type: biochemical, Saccharum spontaneum; conditions: two-hour incubation with 100 μM substrate
Description: (§1) To screen for OMT activities, purified stilbene products of enzyme assays were separated by a Synergi C18 column (Synergi 4μ Fusion RP 80 Å, 50×2 mm, Phenomenex, USA) under a flow rate of 0.5 ml min-1 over a 6 min linear gradient of 10%-90% B (described below). […] Meanwhile, purified phenylpropanoid products of enzyme assays were separated on the same column connected to a HP1100 series HPLC system (Agilent Technologies, USA) linked to an AP3200-QTRAP mass spectrometer (AB Sciex, China) operating under the multiple-reaction-monitoring (MRM) mode. To quantify these products, assay products were separated on a Kinetex C18 column (Kinetex 2.6 μm C18 100 Å, 100×2.1 mm, Phenomenex, USA) connected to a HP1100 series HPLC system (Agilent Technologies, USA) linked to an AP3200-QTRAP mass spectrometer (AB Sciex, China) operating under the multiple-reaction-monitoring (MRM) mode. A linear gradient of 10%-90% B under a flow rate of 0.3 ml min-1 over 6 min was used to further enhance sensitivity. Total metabolites from all plant tissues were separated by the same Kinetex C18 column connected to the X500R QTOF-HRMS system. A linear gradient under a flow rate of 0.3 ml min-1 over a 20 min linear gradient of 10%-90% B was used.
(§2) Reaction products were extracted twice with ethyl acetate. […] All reactions were done in triplicates.

SbSOMT [2] = target: T1, SbSOMT (Sorghum bicolor, UniProt A0A1B6PFV1); assay: In vitro OMT enzyme assay, recombinant SbSOMT; type: biochemical
Description: as §1, §2

SbCOMT [3] = target: T2, SbCOMT (Sorghum bicolor, UniProt Q84X55); assay: In vitro OMT enzyme assay, recombinant SbCOMT; type: biochemical
Description: as §1, §2

SbCOMT [4] = target: T2, SbCOMT; assay: Isothermal titration calorimetry (ITC), SbCOMT wild type; type: binding
Description: (§3) Isothermal titration calorimetry (ITC) assays were conducted with MicroCal iTC200 (Malvern Panalytical, UK). […] Both cell sample and titrant were equilibrated to ITC buffer consisting of 100 mM HEPES pH 7.9 with 2.5% (v/v) PEG 400. For ITC assays involving pterostilbene, PEG 400 concentration was increased to 5% (v/v). Each run incorporated an initial delay of 60 s prior to the first injection (0.5 μl) and spaced 150 s between the subsequent 19 injections (2.0 μl) at 25° C. During the runs, the cell was continuously stirred at 750 rpm by flat paddle. Results were analysed based on the 2nd to 20th injections using the Origin (MicroCal Software, USA) and PEAQ-ITC software (Malvern Panalytical, UK).

SbSOMT [5] = target: T1, SbSOMT; assay: Isothermal titration calorimetry (ITC), SbSOMT wild type; type: binding
Description: as §3

SsCOMT [6] = assay: Isothermal titration calorimetry (ITC), SsCOMT wild type; type: binding, Saccharum spontaneum; conditions: 25° C., SsCOMT WT, mean ± standard error from curve fitting
Description: as §3

SbSOMT E310A = SbSOMT E310A (Sorghum bicolor, UniProt A0A1B6PFV1, E310A); assay: biochemical; type: binding; conditions: for Stoichiometry, N: ITC
Description: (§4) Desired mutations of SbSOMT were introduced into its construct using specific primers (Table 11). Expression constructs were transformed into Rosetta™ (DE3) competent Escherichia coli cells (Novagen, Germany). Protein expression was induced with 0.1 mM Isopropyl-β-thiogalactopyranoside (IPTG) overnight at 16° C. E. coli cells were harvested, resuspended in lysis buffer (20 mM Tris buffer pH 7.9, 300 mM NaCl, 2.5 mM β-mercaptoethanol), and lysed by sonication. Crude proteins were loaded onto a HisTrap HP column (Cytiva, USA) connected to a AKTA pure chromatography system (Cytiva, USA). Column was washed with 15 column volumes of lysis buffer with 50 mM imidazole. Proteins were eluted over a gradient of 50-500 mM imidazole. Eluate fractions with the target OMT were pooled, digested with TEV protease, and simultaneously dialyzed against a low salt buffer (20 mM Tris pH 7.9, 50 mM NaCl, 2.5 mM β-mercaptoethanol) overnight at 4° C. The dialyzed sample was filtered and flowed through HisTrap to remove His-tagged components. The flowthrough was then loaded to HiTrap Q FF columns (Cytiva, USA) over a gradient of 50-1000 mM NaCl. Polishing was achieved via size-exclusion chromatography using the storage buffer (100 mM HEPES pH 7.9, 100 mM NaCl) as mobile phase. SsSTS was purified under the same conditions except that the pH was adjusted to 7.0 for all buffers. Proteins were concentrated by ultrafiltration and flash frozen for storage at −80° C.
as §3

SbSOMT [7] = target: T1, SbSOMT; assay: Enzyme kinetics of SbSOMT; type: biochemical; conditions: pinostilbene as substrate
From the text: as §2

SbCOMT [8] = target: T2, SbCOMT; assay: Enzyme kinetics of SbCOMT; type: biochemical; conditions: pinostilbene as substrate
From the text: as §2

SbSOMT I144N/F337N [9] = assay: ITC, SbSOMT I144N/F337N mutant protein; type: binding, Sorghum bicolor
Description: as §4, with “Polishing was achieved via size-exclusion chromatography using the storage buffer (100 mM HEPES pH 7.9, 100 mM NaCl) as mobile phase. SsSTS was purified under the same conditions except that the pH was adjusted to 7.0 for all buffers. Proteins were concentrated by ultrafiltration and flash frozen for storage at −80° C.” left out
(§5) Isothermal titration calorimetry (ITC) assays were conducted with MicroCal iTC200 (Malvern Panalytical, UK). […] Results were analysed based on the 2nd to 20th injections using the Origin (MicroCal Software, USA) and PEAQ-ITC software (Malvern Panalytical, UK).

SbOMT4 = assay: In vitro OMT enzyme assay, recombinant SbOMT4; type: biochemical, Sorghum bicolor
Description: as §1, §2

SbSOMT F337N [10] = assay: ITC, SbSOMT F337N mutant protein; type: binding, Sorghum bicolor
Description: as §4, with “Polishing was achieved via size-exclusion chromatography using the storage buffer (100 mM HEPES pH 7.9, 100 mM NaCl) as mobile phase. SsSTS was purified under the same conditions except that the pH was adjusted to 7.0 for all buffers. Proteins were concentrated by ultrafiltration and flash frozen for storage at −80° C.” left out
as §5

SbSOMT D283A [11] = target: T3, SbSOMT D283A (Sorghum bicolor, UniProt A0A1B6PFV1, D283A); assay: biochemical
Description: as §4, §3

SbSOMT I144N = SbSOMT I144N (Sorghum bicolor, UniProt A0A1B6PFV1, I144N); assay: biochemical
Description: as §4, §3

SbSOMT E342A [12] = target: T4, SbSOMT E342A (Sorghum bicolor, UniProt A0A1B6PFV1, E342A); assay: biochemical
Description: as §4, §3

SbSOMT H282N/D283A = SbSOMT H282N/D283A (Sorghum bicolor, UniProt A0A1B6PFV1, D283A/H282N); assay: biochemical
Description: as §4, §3

SbSOMT F337N [13] = assay: Catalytic assay, SbSOMT F337N mutant protein; type: biochemical, Sorghum bicolor; conditions: SbSOMT F337N vs WT, resveratrol, one-hour incubation
From the text: (§6) Data are expressed as yields relative to that of wild-type SbSOMT protein (WT). […] Data are expressed as yields relative to that of wild-type SbSOMT protein (WT). Values refer to means±SD (n=3). Asterisks indicate significant differences between mutant protein and WT (Student's t-test, ***: p<0.001). Tricin was used as an internal standard for quantitation. […] Dots represent individual data points.
(§7) Desired mutations of SbSOMT were introduced into its construct using specific primers (Table 11). Expression constructs were transformed into Rosetta™ (DE3) competent Escherichia coli cells (Novagen, Germany). Protein expression was induced with 0.1 mM Isopropyl-β-thiogalactopyranoside (IPTG) overnight at 16° C. E. coli cells were harvested, resuspended in lysis buffer (20 mM Tris buffer pH 7.9, 300 mM NaCl, 2.5 mM β-mercaptoethanol), and lysed by sonication. […]
(§8) For initial screening of OMT activities, purified OMT enzymes (10 μg) were incubated in 100 mM HEPES buffer (pH 7.9), 200 μM S-adenosyl-L-methionine (SAM) and 100 μM of phenylpropanoid or stilbene substrates (final volume 200 μl) at 30° C. for 2 h. Enzyme kinetics were determined by incubating 1 μg protein with 100 mM HEPES buffer (pH 7.9), 300 μM SAM, and stilbene concentrations ranging from 5 to 200 μM at 30° C. for 5 min. […]

SbSOMT I144N/F337N [14] = assay: Catalytic assay, SbSOMT I144N/F337N mutant protein; type: biochemical, Sorghum bicolor; conditions: resveratrol, one-hour incubation
From the text: as §6, §7, §8

SbSOMT D283A [15] = target: T3, SbSOMT D283A; conditions: SbSOMT D283A incubated with resveratrol, one hour
From the text: as §6, §7, §8

SbSOMT E342A [16] = target: T4, SbSOMT E342A; conditions: SbSOMT E342A incubated with resveratrol, one hour
From the text: as §6, §7, §8

SbSOMT H282A = assay: Catalytic assay, SbSOMT H282A mutant protein; type: biochemical, Sorghum bicolor; conditions: one-hour incubation
From the text: as §6, §7, §8

[17] = two-hour incubation with 100 μM substrate
[18] = 300 μM SAM, 30° C., 5 min, mean ± SD (n = 3)
[19] = ITC, 25° C., SbCOMT WT, mean ± standard error from curve fitting, read-out: Kd
[20] = two-hour incubation with 100 μM resveratrol

## COc1cc(/C=C/C(=O)O)cc(O)c1O [5-hydroxyferulic acid]
SsCOMT [1]
  formation of O-methylated product: generated
SbSOMT [2]; [17]
  O-methylation of hydroxycinnamic acids: failed to methylate
SbCOMT [3]; [17]
  O-methylation of hydroxycinnamic acids to ferulic acid / sinapic acid: efficiently converted

## Oc1cc(O)cc(/C=C/c2ccc(O)c(O)c2)c1 [Piceatannol, piceatannol]
SbCOMT [4]
  Kd: 1.26 µM
SbCOMT [3]; two-hour reaction with 100 μM piceatannol
  conversion of piceatannol into isorhapontigenin (3′-O-methylation in the B-ring): ca. 60%

## COc1cc(O)cc(/C=C/c2ccc(O)cc2)c1 [Pinostilbene, pinostilbene]
SbSOMT [5]; ITC, 25° C., SbSOMT WT, mean ± standard error from curve fitting, read-out: Kd
  Kd: 2.86 µM
SsCOMT [6]
  Kd: 5.57 ± 0.77 µM
SbSOMT E310A; SbSOMT mutant E310A
  Stoichiometry, N: 0.59 ± 0.01
SbSOMT E310A; SbSOMT mutant E310A, ± SE, read-out: Kd
  Kd: 3.91 ± 0.33 µM
SbSOMT [7]
  Specific activity: 290.04 ± 5.64 nmol/min/mg
  kcat: 0.1717 ± 0.00333 s⁻¹
SbSOMT [7]; [18]
  Km: 4.62 ± 0.46 µM
SbCOMT [8]
  Specific activity: 3.46 ± 0.27 nmol/min/mg
  kcat: 0.00233 ± 0.00017 s⁻¹
SbCOMT [8]; [18]
  Km: 3.14 ± 1.4 µM
SbCOMT [4]; [19]
  Kd: 1.79 µM

## COc1cc(/C=C/c2ccc(O)cc2)cc(OC)c1 [Pterostilbene, pterostilbene]
SbSOMT E310A
  Kd: 6.04 ± 2.08 µM
SbCOMT [4]; [19]
  Kd: 3.99 µM

## Oc1ccc(C=Cc2cc(O)cc(O)c2)cc1 [Resveratrol, resveratrol]
SsCOMT [1]
  formation of O-methylated product: only small amounts of pinostilbene were generated
SbSOMT [5]
  Kd: 4.69 µM
SbSOMT I144N/F337N [9]
  Kd: No binding
SbSOMT I144N/F337N [9]; listed as resveratrol
  Kd: undetectable binding affinities
SbOMT4
  SOMT activities with resveratrol as substrate: minimal SOMT activities
SsCOMT [6]
  Kd: 2.78 ± 0.33 µM
SbSOMT E310A
  Kd: 18.5 ± 2.58 µM
SbSOMT E310A; SbSOMT mutant E310A
  Stoichiometry, N: 0.36 ± 0.04
SbSOMT F337N [10]
  Kd: No binding
SbSOMT F337N [10]; listed as resveratrol
  Kd: undetectable binding affinities
SbSOMT D283A [11]
  Kd: 1.31 µM
SbSOMT D283A [11]; SbSOMT mutant D283A, ITC
  Stoichiometry, N: 0.58 ± 0.01
SbSOMT I144N
  Kd: 152 ± 31.1 µM
SbSOMT I144N; SbSOMT mutant I144N, N fixed at 0.6 to estimate the Kd, ± SE
  Kd: significantly weakened binding
SbSOMT E342A [12]
  Kd: 11.1 ± 0.75 µM
SbSOMT E342A [12]; SbSOMT mutant E342A, ITC
  Stoichiometry, N: 0.75 ± 0.01
SbSOMT H282N/D283A
  Kd: 32.9 µM
SbSOMT H282N/D283A; SbSOMT mutant H282N/D283A, ITC
  Stoichiometry, N: 0.61 ± 0.17
SbSOMT F337N [13]
  less pterostilbene produced compared to WT: 97.7%
  more pinostilbene accumulated compared to WT: 50.8%
SbSOMT [2]; [20]
  conversion of resveratrol into pterostilbene: about 60%
SbCOMT [4]
  Kd: 1.55 µM
SbSOMT I144N/F337N [14]
  SOMT activities: complete abolishment of SOMT activities
SbCOMT [3]; [20]
  resveratrol 3,5-bis-O-methylation activities: poor resveratrol 3,5-bis-O-methylation activities
SbSOMT D283A [15]
  pterostilbene formation: failed to generate pterostilbene
SbSOMT E342A [16]
  pterostilbene formation: failed to generate pterostilbene
SbSOMT H282A
  catalytic activity with resveratrol: catalytically defective

— patent US20250283056A1, “MODIFIED O-[…] USEFUL FOR PRODUCTION OF O-METHYLATED PHENOLIC NATURAL PRODUCTS” (The University of Hong Kong, priority 2024, published 2025)
